Measurements from patent US9661855B2, “Cyclic aza-sila compounds as insect repellants” (COUNCIL OF SCIENTIFIC & INDUSTRIAL RESEARCH, priority 2012, dated 2017).
Where two headings read alike, the source gives them in different places.

Key:
[1] = system: Ae. aegypti females mosquitoes; test: Mosquito repellence test, protection period (time until the first bite), treated muslin screen over human volunteer's hand; assay type: in vivo; settings: 27±1° C.; for Protection period in hrs @ 0.25 mg/cm^2: 0.25 mg/cm^2 on muslin cloth screen; for Protection period in hrs @ 0.50 mg/cm^2: 0.50 mg/cm^2 on muslin cloth screen
Procedure: Mosquito repellence activity was assessed on the basis of protection period (hr) offered by various analogues of DEET against Mosquito bites. The protection period was measured on the basis of the concept” time until the first bite” pioneered by Granette (Comparison of mosquito repellence test under laboratory and field conditions. Granett, P. Proc Ann Meet NJ Mosq Assoc, 1938, vol. 25, 51). Repellence tests were carried out against 3-5 days old, blood starved but sucrose fed (0.5M solution), Ae. aegypti females mosquitoes, drawn from well-established laboratory colony maintained at 27±1° C. Temperature and 70±5% Relative humidity. The light intensity was regulated at 300-500 lux for testing against laboratory, colonized Ae. aegypti, a day biting mosquito. Human volunteer's hand covered with polythene disposable gloves was introduced in the cage containing about 200 hungry mosquitoes. Mosquitoes were allowed to bite on the back of the hand through muslin screen stuck over a small window (2 cm×2 cm) cut out in the polythene bag. Various analogues of DEET were loaded on the muslin cloth screen instead of direct skin application so as to avoid the potential risk involved in the evaluation of natural products of unknown mammalian toxicity. All the test solutions were made in Analar grade Acetone The muslin cloth screen was first treated with the analogue taking two doses @0.25 mg/cm2 and 0.5 mg/cm2 and the solvent was evaporated before use. Control muslin screen was treated with solvent alone. After introduction of the hand covered with the polythene glove with the treated muslin screen into the mosquito cage, number of mosquito bites received in subsequent 5 minutes was counted. In the event of no bites in the initial 5 minutes exposure, the test hand was exposed repeatedly after every consecutive ½ hr for 5 minutes test till the time a confirmed bite was received. Number of hours before the receipt of a confirmed bite (Techniques for the evaluation of insect repellents. A critical review (Schreck, C. E, Ann Rev Entomol, 1977, vol 22, 101) represented the protection period offered by the test compound. In control rate of mosquito bite was 10-12 bites/min. All the tests were carried out at 27±1° C. temperature between 9.00-17.00 hrs.

insect bites = settings: cited from earlier work
Aedesaegypti (L.) = settings: against Aedesaegypti (L.); topical, human volunteers; cited from earlier work
[2] = system: Anopheles stephensi Liston; settings: against Anopheles stephensi Liston; topical, human volunteers; cited from earlier work

Compound `Cc1cccc(C(=O)N2CC[Si](C)(C)CC2)c1` has a melting point of 65 to 68 °C.

Compound `C[Si]1(C)CCN(C(=O)c2ccccc2)CC1` has a melting point of 65 to 67 °C.

Work on `C[Si]1(C)CCN(C(=O)c2cc(Cl)ccc2Cl)CC1` yielded a melting point of 79 to 81 °C.

`C[Si]1(C)CCN(C(=O)c2ccccn2)CC1` showed a melting point of 101 to 103 °C.

In the case of `C[Si]1(C)CCN(C(=O)c2cnccn2)CC1`, the “Protection period in hrs @ 0.25 mg/cm^2” value [1] was 2.14 ± 0.76 h and the “Protection period in hrs @ 0.50 mg/cm^2” value [1] was 4.22 ± 0.69 h.

In the case of `CCCCCCCCCCC(=O)N1CC[Si](C)(C)CC1`, the “Protection period in hrs @ 0.25 mg/cm^2” value [1] was 2.14 ± 0.065 h and the “Protection period in hrs @ 0.50 mg/cm^2” value [1] was 5.05 ± 0.207 h.

For `Cc1ccccc1C(=O)N1CC[Si](C)(C)CC1`, the “Protection period in hrs @ 0.25 mg/cm^2” value [1] was 4.09 ± 0.053 h and the “Protection period in hrs @ 0.50 mg/cm^2” value [1] was 5.41 ± 0.135 h.

In the case of `Cc1ccc(C(=O)N2CC[Si](C)(C)CC2)cc1`, the “Protection period in hrs @ 0.25 mg/cm^2” value [1] was 3.08 ± 0.056 h and the “Protection period in hrs @ 0.50 mg/cm^2” value [1] was 4.16 ± 0.067 h.

In the case of `CCN(CC)C(=O)c1cccc(C)c1` [DEET, N,N-Diethyl-meta-toluamide], the hours of protection (insect bites; 100% DEET) is given as “up to 12 hours” and the hours of protection (insect bites; lower concentrations of 20%-40% DEET) is given as 3 to 8 h.

In the case of `CCN(CC)C(=O)c1cccc(C(F)(F)F)c1` [N,N,diethyl[3-(trifluoromethyl)]benzamide], the “biting-deterrent activities compared with DEET” value (Aedesaegypti (L.)) is listed as “superior to DEET” and the “biting-deterrent activities compared with DEET” value [2] is listed as “superior to DEET”.

For `CCN(CC)C(=O)Cc1cccc(Br)c1` [N,N-diethyl(3-bromophenyl) acetamide], the “biting-deterrent activities compared with DEET” value (Aedesaegypti (L.)) is listed as “superior to DEET” and the “biting-deterrent activities compared with DEET” value [2] is listed as “superior to DEET”.

For `CCN(CC)C(=O)Cc1cccc(C(F)(F)F)c1` [N,N-diethyl[(alpha,alpha,alpha-trifluoro-m-tolyl)]acetamide], the “biting-deterrent activities compared with DEET” value (Aedesaegypti (L.)) is listed as “superior to DEET” and the “biting-deterrent activities compared with DEET” value [2] is listed as “superior to DEET”.

With `Cc1cccc(C(=O)N2CC[Si](C)(C)CC2)c1` [drawing 33] the “Protection period in hrs @ 0.25 mg/cm^2” value [1] was 1.47 ± 0.13 h and the “Protection period in hrs @ 0.50 mg/cm^2” value [1] was 2.15 ± 0.072 h.
